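Values below derive from 48-hour exposures of cells grown in 96-well plates, with endpoints linearly interpolated between the two concentrations bracketing the appropriate inhibition level. GI50 = concentration required for 50% inhibition of growth.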 Calls of active or inactive are those of the source. Cut-off read from the data, not from the text of the source: active = GI50 up to about 1.1 µM and inactive = higher.
Legend:
Assay in all cases: NCI anticancer screen, dose series, 48 h
SK-OV-3 = tested on: SK-OV-3
CCRF-CEM = tested on: CCRF-CEM
IGROV-1 = tested on: IGROV-1
OVCAR-5 = tested on: OVCAR-5
SN12C = tested on: SN12C
SNB-78 = tested on: SNB-78
OVCAR-4 = tested on: OVCAR-4
EKVX = tested on: EKVX
NCI-H460 = tested on: NCI-H460
LOX IMVI = tested on: LOX IMVI
M19-MEL = tested on: M19-MEL
LXFL 529 = tested on: LXFL 529
HOP-62 = tested on: HOP-62
KM12 = tested on: KM12
DMS-273 = tested on: DMS-273
UACC-62 = tested on: UACC-62
SK-MEL-2 = tested on: SK-MEL-2
SF-295 = tested on: SF-295
HOP-92 = tested on: HOP-92
U-251 = tested on: U-251
HT-29 = tested on: HT-29
RPMI-8226 = tested on: RPMI-8226
HL-60 = tested on: HL-60
HCT-15 = tested on: HCT-15
OVCAR-8 = tested on: OVCAR-8
ACHN = tested on: ACHN
OVCAR-3 = tested on: OVCAR-3
CAKI-1 = tested on: CAKI-1
SNB-75 = tested on: SNB-75
SW-620 = tested on: SW-620
NCI-H522 = tested on: NCI-H522
NCI-H226 = tested on: NCI-H226
MOLT-4 = tested on: MOLT-4
K562 = tested on: K562
M14 = tested on: M14
SR = tested on: SR
DLD-1 = tested on: DLD-1
SF-539 = tested on: SF-539
DMS-114 = tested on: DMS-114
SK-MEL-5 = tested on: SK-MEL-5
786-0 = tested on: 786-0
HCT-116 = tested on: HCT-116
Malme-3M = tested on: Malme-3M
NCI-H23 = tested on: NCI-H23
COLO 205 = tested on: COLO 205
SF-268 = tested on: SF-268
UO-31 = tested on: UO-31
KM-20L2 = tested on: KM-20L2
RXF 393 = tested on: RXF 393
SK-MEL-28 = tested on: SK-MEL-28
A549 = tested on: A549
A498 = tested on: A498
UACC-257 = tested on: UACC-257
SNB-19 = tested on: SNB-19
HCC 2998 = tested on: HCC 2998
HOP-18 = tested on: HOP-18

SMILES: OCC(O)C(O)C(O)c1nnn[nH]1 (stereo not drawn)
- GI50 (SK-OV-3): > 100 µM (inactive)
- GI50 (CCRF-CEM): > 100 µM (inactive)
- GI50 (IGROV-1): > 100 µM (inactive)
- GI50 (OVCAR-5): > 100 µM (inactive)
- GI50 (SN12C): > 100 µM (inactive)
- GI50 (SNB-78): > 100 µM (inactive)
- GI50 (OVCAR-4): > 100 µM (inactive)
- GI50 (EKVX): > 100 µM (inactive)
- GI50 (NCI-H460): > 100 µM (inactive)
- GI50 (LOX IMVI): > 100 µM (inactive)
- GI50 (M19-MEL): > 100 µM (inactive)
- GI50 (LXFL 529): > 100 µM (inactive)
- GI50 (HOP-62): > 100 µM (inactive)
- GI50 (KM12): > 100 µM (inactive)
- GI50 (DMS-273): > 100 µM (inactive)
- GI50 (UACC-62): > 100 µM (inactive)
- GI50 (SK-MEL-2): > 100 µM (inactive)
- GI50 (SF-295): > 100 µM (inactive)
- GI50 (HOP-92): > 100 µM (inactive)
- GI50 (U-251): > 100 µM (inactive)
- GI50 (HT-29): > 100 µM (inactive)
- GI50 (RPMI-8226): > 100 µM (inactive)
- GI50 (HL-60): > 100 µM (inactive)
- GI50 (HCT-15): > 100 µM
- GI50 (OVCAR-8): > 100 µM (inactive)
- GI50 (ACHN): > 100 µM (inactive)
- GI50 (OVCAR-3): > 100 µM (inactive)
- GI50 (CAKI-1): > 100 µM (inactive)
- GI50 (SNB-75): > 100 µM (inactive)
- GI50 (SW-620): > 100 µM (inactive)
- GI50 (NCI-H522): > 100 µM (inactive)
- GI50 (NCI-H226): 34.8 µM (inactive)
- GI50 (MOLT-4): > 100 µM (inactive)
- GI50 (K562): > 100 µM (inactive)
- GI50 (M14): > 100 µM (inactive)
- GI50 (SR): > 100 µM (inactive)
- GI50 (DLD-1): > 100 µM (inactive)
- GI50 (SF-539): > 100 µM (inactive)
- GI50 (DMS-114): > 100 µM (inactive)
- GI50 (SK-MEL-5): > 100 µM (inactive)
- GI50 (786-0): > 100 µM (inactive)
- GI50 (HCT-116): > 100 µM (inactive)
- GI50 (Malme-3M): > 100 µM (inactive)
- GI50 (NCI-H23): > 100 µM (inactive)
- GI50 (COLO 205): > 100 µM (inactive)
- GI50 (SF-268): > 100 µM (inactive)
- GI50 (UO-31): > 100 µM (inactive)

SMILES: Cc1ccc(-c2nc3ccccc3c(=O)n2NCC2(O)OCC(O)C(O)C2O)cc1 (stereo not drawn)
- GI50 (SK-OV-3): > 100 µM (inactive)
- GI50 (KM-20L2): > 100 µM (inactive)
- GI50 (CCRF-CEM): > 100 µM (inactive)
- GI50 (OVCAR-5): > 100 µM (inactive)
- GI50 (SN12C): > 100 µM (inactive)
- GI50 (SNB-78): > 100 µM (inactive)
- GI50 (OVCAR-4): > 100 µM (inactive)
- GI50 (EKVX): > 100 µM (inactive)
- GI50 (NCI-H460): > 100 µM (inactive)
- GI50 (LOX IMVI): > 100 µM (inactive)
- GI50 (M19-MEL): > 100 µM (inactive)
- GI50 (LXFL 529): > 100 µM (inactive)
- GI50 (KM12): > 100 µM (inactive)
- GI50 (DMS-273): > 100 µM (inactive)
- GI50 (UACC-62): > 100 µM (inactive)
- GI50 (SK-MEL-2): > 100 µM (inactive)
- GI50 (SF-295): > 100 µM (inactive)
- GI50 (U-251): > 100 µM (inactive)
- GI50 (HT-29): > 100 µM (inactive)
- GI50 (RPMI-8226): > 100 µM (inactive)
- GI50 (HL-60): > 100 µM (inactive)
- GI50 (HCT-15): > 100 µM
- GI50 (RXF 393): > 100 µM (inactive)
- GI50 (SK-MEL-28): > 100 µM (inactive)
- GI50 (OVCAR-8): > 100 µM (inactive)
- GI50 (ACHN): > 100 µM (inactive)
- GI50 (A549): > 100 µM (inactive)
- GI50 (OVCAR-3): > 100 µM (inactive)
- GI50 (CAKI-1): > 100 µM (inactive)
- GI50 (SNB-75): > 100 µM (inactive)
- GI50 (A498): > 100 µM (inactive)
- GI50 (SW-620): > 100 µM (inactive)
- GI50 (NCI-H522): > 100 µM (inactive)
- GI50 (MOLT-4): > 100 µM (inactive)
- GI50 (K562): > 100 µM (inactive)
- GI50 (UACC-257): > 100 µM (inactive)
- GI50 (M14): > 100 µM (inactive)
- GI50 (SR): > 100 µM (inactive)
- GI50 (SNB-19): > 100 µM (inactive)
- GI50 (SF-539): > 100 µM (inactive)
- GI50 (DMS-114): > 100 µM (inactive)
- GI50 (SK-MEL-5): > 100 µM (inactive)
- GI50 (786-0): > 100 µM (inactive)
- GI50 (HCT-116): > 100 µM (inactive)
- GI50 (Malme-3M): > 100 µM (inactive)
- GI50 (NCI-H23): > 100 µM (inactive)
- GI50 (COLO 205): > 100 µM (inactive)
- GI50 (SF-268): > 100 µM (inactive)
- GI50 (UO-31): > 100 µM (inactive)

SMILES: COc1ccc(/C=N/N=C(\N)NO)c(OC)c1
- GI50 (SK-OV-3): 75.2 µM (inactive)
- GI50 (CCRF-CEM): 79.8 µM (inactive)
- GI50 (IGROV-1): > 100 µM (inactive)
- GI50 (OVCAR-5): 9.77 µM (inactive)
- GI50 (SN12C): 67.8 µM (inactive)
- GI50 (SNB-78): > 100 µM (inactive)
- GI50 (OVCAR-4): > 100 µM (inactive)
- GI50 (EKVX): 38.3 µM (inactive)
- GI50 (LOX IMVI): 24.7 µM (inactive)
- GI50 (M19-MEL): 24.5 µM (inactive)
- GI50 (LXFL 529): 8.81 µM (inactive)
- GI50 (HOP-62): 16.2 µM (inactive)
- GI50 (KM12): 30.3 µM (inactive)
- GI50 (UACC-62): 27.9 µM (inactive)
- GI50 (HCC 2998): 12.2 µM (inactive)
- GI50 (SK-MEL-2): 52.4 µM (inactive)
- GI50 (SF-295): 16.1 µM (inactive)
- GI50 (HOP-92): 11.2 µM (inactive)
- GI50 (U-251): > 100 µM (inactive)
- GI50 (RPMI-8226): 84.3 µM (inactive)
- GI50 (HCT-15): 26.9 µM
- GI50 (RXF 393): 54 µM (inactive)
- GI50 (SK-MEL-28): > 100 µM (inactive)
- GI50 (OVCAR-8): 61 µM (inactive)
- GI50 (ACHN): 21 µM (inactive)
- GI50 (A549): 31.8 µM (inactive)
- GI50 (OVCAR-3): 37.7 µM (inactive)
- GI50 (CAKI-1): 19.2 µM (inactive)
- GI50 (SW-620): 45.4 µM (inactive)
- GI50 (NCI-H522): > 10 µM (inactive)
- GI50 (NCI-H226): 34.1 µM (inactive)
- GI50 (MOLT-4): 77.6 µM (inactive)
- GI50 (K562): 15.7 µM (inactive)
- GI50 (UACC-257): 80.7 µM (inactive)
- GI50 (DLD-1): > 100 µM (inactive)
- GI50 (SNB-19): > 100 µM (inactive)
- GI50 (SF-539): 23.3 µM (inactive)
- GI50 (HOP-18): 14.6 µM (inactive)
- GI50 (DMS-114): 18.1 µM (inactive)
- GI50 (SK-MEL-5): 59.8 µM (inactive)
- GI50 (786-0): 57.5 µM (inactive)
- GI50 (HCT-116): 52 µM (inactive)
- GI50 (Malme-3M): 68.7 µM (inactive)
- GI50 (NCI-H23): 46.7 µM (inactive)
- GI50 (COLO 205): 49.7 µM (inactive)
- GI50 (SF-268): 48.3 µM (inactive)
- GI50 (UO-31): 13.8 µM (inactive)
